Assay results taken from EP1586565A1, “Substituted polycyclic aryl and heteroaryl pyrazinones useful for selective inhibition of the coagulation cascade” (Pharmacia Corporation, priority 1999, dated 2000).

Biological target: T1, Human factor Xa (Homo sapiens, UniProt P00742)
T1 construct: leads from XII to XIIa to XIa to IXa and to the conversion of X to Xa; purchased Enzyme Research Laboratories, South Bend IN
Assay: Xa Assay
Format: biochemical
Details: % inhibition at 30 µM (cells with % or %@30, bare 0)

T1 sequence (P00742 235-488 limits assumed): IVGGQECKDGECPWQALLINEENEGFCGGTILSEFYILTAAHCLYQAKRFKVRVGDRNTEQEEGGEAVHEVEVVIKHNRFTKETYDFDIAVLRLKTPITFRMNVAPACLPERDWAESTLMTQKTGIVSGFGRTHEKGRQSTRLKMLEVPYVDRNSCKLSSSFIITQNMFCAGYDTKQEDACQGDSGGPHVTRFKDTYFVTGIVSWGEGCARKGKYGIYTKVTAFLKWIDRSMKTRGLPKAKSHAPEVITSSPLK
T1 sequence (P00742 41-179 limits assumed): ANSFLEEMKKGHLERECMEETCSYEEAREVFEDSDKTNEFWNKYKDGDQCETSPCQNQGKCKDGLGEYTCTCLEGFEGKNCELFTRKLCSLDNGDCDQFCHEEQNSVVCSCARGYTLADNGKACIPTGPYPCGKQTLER

Structure (SMILES)	IC50 or % Inhibition Factor Xa (30 µM) [%]
Cc1c(Cl)nc(NCc2ccccc2)c(=O)n1CC(=O)NCc1ccc(C(=N)N)cc1 [1471-1]	10
Cc1c(Cl)nc(NCCc2ccc(Cl)cc2)c(=O)n1CC(=O)NCc1ccc(C(=N)N)cc1 [1471-2]	10
Cc1c(Cl)nc(NCc2ccncc2)c(=O)n1CC(=O)NCc1ccc(C(=N)N)cc1 [1471-3]	0
Cc1c(Cl)nc(NCCN2CCOCC2)c(=O)n1CC(=O)NCc1ccc(C(=N)N)cc1 [1471-4]	0
Cc1c(Cl)nc(NCCc2ccncc2)c(=O)n1CC(=O)NCc1ccc(C(=N)N)cc1 [1471-5]	12
Cc1c(Cl)nc(NCCc2cccc(Cl)c2)c(=O)n1CC(=O)NCc1ccc(C(=N)N)cc1 [1471-6]	14
Cc1c(Cl)nc(NCCc2ccccc2)c(=O)n1CC(=O)NCc1ccc(C(=N)N)cc1 [1471-7]	4
Cc1c(Cl)nc(NCCc2cccnc2)c(=O)n1CC(=O)NCc1ccc(C(=N)N)cc1 [1471-8]	27
N=C(N)c1ccc(CNC(=O)Cn2c(-c3ccccc3)c(Cl)nc(NCc3ccccc3)c2=O)cc1 [1471-9]	29
N=C(N)c1ccc(CNC(=O)Cn2c(-c3ccccc3)c(Cl)nc(NCCc3ccc(Cl)cc3)c2=O)cc1 [1471-10]	45
N=C(N)c1ccc(CNC(=O)Cn2c(-c3ccccc3)c(Cl)nc(NCc3ccncc3)c2=O)cc1 [1471-11]	9
N=C(N)c1ccc(CNC(=O)Cn2c(-c3ccccc3)c(Cl)nc(NCCN3CCOCC3)c2=O)cc1 [1471-12]	9
N=C(N)c1ccc(CNC(=O)Cn2c(-c3ccccc3)c(Cl)nc(NCCc3ccncc3)c2=O)cc1 [1471-13]	0
N=C(N)c1ccc(CNC(=O)Cn2c(-c3ccccc3)c(Cl)nc(NCCc3cccnc3)c2=O)cc1 [1471-16]	23
N=C(N)c1ccc(CNC(=O)Cn2c(-c3ccc(Cl)cc3)c(Cl)nc(NCCc3ccc(Cl)cc3)c2=O)cc1 [1471-18]	26
N=C(N)c1ccc(CNC(=O)Cn2c(-c3ccc(Cl)cc3)c(Cl)nc(NCCc3cccc(Cl)c3)c2=O)cc1 [1471-22]	28
N=C(N)c1ccc(CNC(=O)Cn2c(-c3ccc(Cl)cc3)c(Cl)nc(NCCc3ccccc3)c2=O)cc1 [1471-23]	36
N=C(N)c1ccc(CNC(=O)Cn2c(-c3cccc(Cl)c3)c(Cl)nc(NCc3ccccc3)c2=O)cc1 [1471-25]	31
N=C(N)c1ccc(CNC(=O)Cn2c(-c3cccc(Cl)c3)c(Cl)nc(NCc3ccncc3)c2=O)cc1 [1471-27]	16
N=C(N)c1ccc(CNC(=O)Cn2c(-c3cccc(Cl)c3)c(Cl)nc(NCCN3CCOCC3)c2=O)cc1 [1471-28]	8
N=C(N)c1ccc(CNC(=O)Cn2c(-c3cccc(Cl)c3)c(Cl)nc(NCCc3ccncc3)c2=O)cc1 [1471-29]	21
N=C(N)c1ccc(CNC(=O)Cn2c(-c3cccc(Cl)c3)c(Cl)nc(NCCc3cccc(Cl)c3)c2=O)cc1 [1471-30]	41
N=C(N)c1ccc(CNC(=O)Cn2c(-c3cccc(Cl)c3)c(Cl)nc(NCCc3ccccc3)c2=O)cc1 [1471-31]	17
N=C(N)c1ccc(CNC(=O)Cn2c(-c3cccc(Cl)c3)c(Cl)nc(NCCc3cccnc3)c2=O)cc1 [1471-32]	25
COc1ccc(-c2c(Cl)nc(NCCc3ccc(Cl)cc3)c(=O)n2CC(=O)NCc2ccc(C(=N)N)cc2)cc1 [1471-34]	24
N=C(N)c1ccc(CNC(=O)Cn2c(-c3ccc4c(c3)OCO4)c(Cl)nc(NCc3ccccc3)c2=O)cc1 [1471-41]	34
N=C(N)c1ccc(CNC(=O)Cn2c(-c3ccc4c(c3)OCO4)c(Cl)nc(NCCc3ccc(Cl)cc3)c2=O)cc1 [1471-42]	15
